Patent US20250297310A1, “HEMATOPOIETIC LOSS OF Y CHROMOSOME LEADS TO CARDIAC FIBROSIS AND DYSFUNCTION AND IS ASSOCIATED WITH DEATH DUE TO HEART FAILURE” (University of Virginia Patent Foundation, priority 2022, published 2025)

How the values were obtained:
[1] = test system: centromere of the Y chromosome; experiment: Y chromosome ablation efficiency by FISH analysis of tRFP-positive blood cells; assay type: cell-based; settings: tRFP-positive blood cells from reconstituted mice
Source text: Plasmids. Single guide RNAs (sgRNA) targeting the centromere of the Y chromosome (gRNA1, gRNA2) were from a previous report (Adikusuma et al., 2017), and the control gRNA is non-targeting. sgRNA sequences are listed in Table 4. Single stranded sgRNA sequences were annealed and cloned into pLKO.sgRNA.EFS.tRFP following restriction digestion with Esp3I, and successful cloning was confirmed by Sanger sequencing with U6 primer (Table 4). Plasmids were from Addgene (pLKO5.0.sgRNA.EFS.tRFP, plasmid #57823; psPAX2; plasmid #12260; and pMD2.G, plasmid #12259).
Ex vivo genome editing of HSPC. sgRNAs were delivered lentivirally to bone marrow lineage-negative cells obtained from ROSA26Cas9 knock-in mice as described previously (Sano et al., 2019).
Fluorescence in situ hybridization (FISH). […] 200 interphase nuclei were analyzed by two technologists using an Olympus fluorescence microscope (model BX-41).
We constructed a mouse model of hematopoietic mLOY by employing CRISPR/Cas9 gene editing to target repeat DNA sequences that are specific to the centromere of the Y chromosome. […] Two LOY-gRNAs (LOY-gRNA1 and 2) targeting different repeat sequences within the centromere were evaluated for the efficiency of Y chromosome ablation by fluorescent in situ hybridization (FISH) analysis of X and Y chromosome in tRFP-positive blood cells collected from mice reconstituted with bone marrow cells. […]

[2] = Effect of senolytic ABT-263 on lifespan and kidney function in aging hematopoietic Uty-KO mice; assay type: in vivo
Source text: FIGS. 28A-28C. The effect of the senolytic ABT-263 on lifespan and kidney function in aging hematopoietic Uty-KO mice. FIG. 28A. Exemplary model of ABT-263 mice. FIGS. 28B and 28C.
FIGS. 28A-28C show the effect of the senolytic ABT-263 on lifespan and kidney function in aging hematopoietic Uty-KO mice, using an exemplary model of ABT-263 mice.

## LOY-gRNA1: guide RNA targeting a repeat sequence in the centromere of the Y chromosome, SEQ ID NOs: 1-2 (guide 1 CACCGGAGUUAAUAUAAAAAACA; guide 2 AAACUGUUUUUUAUAUUAACUCC; listed as RNA, chemistry not fully specified)
[1]
  Y chromosome ablation efficiency: approximately 95%

## CC1(C)CCC(c2ccc(Cl)cc2)=C(CN2CCN(c3ccc(C(=O)NS(=O)(=O)c4ccc(N[C@H](CCN5CCOCC5)CSc5ccccc5)c(S(=O)(=O)C(F)(F)F)c4)cc3)CC2)C1 [ABT-263]
[2]
  progression of renal dysfunction: suppressed the progression of renal dysfunction
  survival: promoted survival
